Measured values published in patent US20240350432A1, “CENTRAL NERVOUS SYSTEM MODULATORS AS COVID-19 THERAPEUTICS” (priority 2023, published 2024).
Entries after “also recorded” stand apart in the source; their conditions may differ.

Experiments:
[1] = test system: SARS-CoV-2, Beta variant; format: in vivo; conditions: COVID-19 positive mice; for body weight nonlinear regression, Best fit / body weight as percent of baseline weight over time: 10 mg/kg I.P. BID, 10 day group; for body weight as percent of baseline weight over time: 10 mg/kg
[2] = test system: SARS-CoV-2, Beta variant; set-up: species or system mice; conditions: mouse, in vivo, ip, 10 mg/kg

Compound	body weight nonlinear regression, Best fit [1]	body weight as percent of baseline weight over time [1]	survival outcome [2]	body weight nonlinear regression, Slope 1 ([1]; Segmental Line fit)	body weight nonlinear regression, Slope2 ([1]; Segmental Line fit)	body weight nonlinear regression, X0 ([1]; Segmental Line fit)
CC12CC3CC(C)(C1)CC(N)(C3)C2 [memantine]	Horizontal Line	appear to reduce observable signs of disease; also recorded: little to no fluctuation in body weight	good survival; also recorded: significantly improved survival outcome	–	–	–
CC(C(O)c1ccc(O)cc1)N1CCC(Cc2ccccc2)CC1 (stereo not drawn) [ifenprodil]	Segmental Line	appear to reduce observable signs of disease; also recorded: reduction in body weight starting around day 5; also recorded: body weight returned to normal levels by day 10 post-inoculation	some protective effect	-0.8076	0.8604	6
